From PubChem BioAssay (NCI)
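96-well plates; 48 h exposure; 5 concentrations. Endpoints by linear interpolation between flanking doses. Not reached: highest tested concentration assigned. TGI: concentration producing complete growth inhibition.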

How the values were obtained:
Experiment in all cases: inhibition of tumour cell growth, NCI panel, 48 h
SF-539 CNS = tested on: SF-539 CNS
SK-MEL-28 melanoma = tested on: SK-MEL-28 melanoma
HL-60(TB) leukemia = tested on: HL-60(TB) leukemia
RPMI-8226 leukemia = tested on: RPMI-8226 leukemia
RXF 393 renal = tested on: RXF 393 renal
KM20L2 colon = tested on: KM20L2 colon
HCT-15 colon = tested on: HCT-15 colon
XF 498 CNS = tested on: XF 498 CNS
A549 NSCLC = tested on: A549 NSCLC
MDA-MB-231 breast = tested on: MDA-MB-231 breast
NCI/ADR-RES ovarian = tested on: NCI/ADR-RES ovarian

Structure (SMILES)	TGI (SF-539 CNS)	TGI (SK-MEL-28 melanoma)	TGI (HL-60(TB) leukemia)	TGI (RPMI-8226 leukemia)	TGI (RXF 393 renal)	TGI (KM20L2 colon)	TGI (HCT-15 colon)	TGI (XF 498 CNS)	TGI (A549 NSCLC)	TGI (MDA-MB-231 breast)	TGI (NCI/ADR-RES ovarian)
Nc1nc(N)c2nc(-c3ccco3)cnc2n1	> 100 µM	> 100 µM	89.6 µM	> 100 µM	> 100 µM	> 100 µM	> 100 µM	> 100 µM	> 100 µM		
CCOP(=O)(OCC)/C(C#N)=C/c1cccn1N(C)C	> 100 µM	> 100 µM	> 100 µM	> 100 µM	> 100 µM		> 100 µM		> 100 µM	> 100 µM	> 100 µM
Cc1ccc(O)c(-c2csc(NCN3CCN(CNc4nc(-c5cc(C)ccc5O)cs4)CC3)n2)c1	> 100 µM	> 100 µM	> 100 µM	> 100 µM	> 100 µM		> 100 µM		> 100 µM	> 100 µM	> 100 µM
O=C(CN1CCOCC1)CC(O)(C(F)(F)F)C(F)(F)F	> 100 µM	> 100 µM	> 100 µM	> 100 µM	> 100 µM		> 100 µM		> 100 µM	> 100 µM	> 100 µM
O=C1CC(c2ccc[nH]2)=NN1c1ccccc1	> 100 µM	> 100 µM	> 100 µM	> 100 µM	> 100 µM		> 100 µM		> 100 µM	> 100 µM	> 100 µM
CCOC(=O)/C=C(\N=P(c1ccccc1)(c1ccccc1)c1ccccc1)C(F)(F)C(F)(F)C(F)(F)C(F)(F)C(F)(F)F	> 100 µM	> 100 µM	> 100 µM	> 100 µM	> 100 µM		> 100 µM		> 100 µM	> 100 µM	> 100 µM
O[C@H]1[C@H](O)[C@H](O)CN2CCC[C@@H](O)[C@H]12	> 100 µM	> 100 µM	> 100 µM	> 100 µM	> 100 µM		> 100 µM		> 100 µM	> 100 µM	> 100 µM
CC(C)NC(=O)OCc1c(COC(=O)NC(C)C)c(-c2ccc[n+](COC(=O)C3CC3)c2)n2c1CCC2	> 100 µM	> 100 µM	> 100 µM	> 100 µM	> 100 µM		> 100 µM		> 100 µM	> 100 µM	> 100 µM
COC(=O)[C@H](Cc1ccccc1)NP(=O)(O)OCC1OC(n2cc(C)c(=O)[nH]c2=O)CC1N=[N+]=[N-] (stereo not given in full)	> 100 µM	> 100 µM	> 100 µM	> 100 µM	> 100 µM		> 100 µM		> 100 µM	> 100 µM	> 100 µM
CSc1nncc2[nH]cnc12	> 100 µM	> 100 µM	> 100 µM	> 100 µM	> 100 µM		> 100 µM		> 100 µM	> 100 µM	> 100 µM
O=C(CCc1ccccc1CO)NCCc1ccccc1	> 100 µM	> 100 µM	> 100 µM	> 100 µM	> 100 µM		> 100 µM		> 100 µM	> 100 µM	> 100 µM
CCN(CC)CCSc1nc2c(c(=N)n1-c1ccccc1)c(=S)n(-c1ccccc1)c(=S)n2-c1ccccc1	9.57 µM	16.5 µM	1.29 µM	1.02 µM	2.78 µM		4.35 µM		4.77 µM	3.73 µM	52.5 µM
COC(=O)c1ccc(CCc2cc(O)c(Br)cc2O)cc1	20.7 µM	34.4 µM	4.65 µM	92.2 µM	32.9 µM		26.1 µM		50.5 µM	29 µM	43.2 µM
COc1cc2c(cc1OC)C(Cc1ccccc1CCCl)=NCC2	48.6 µM	> 100 µM	97.2 µM	98.1 µM	> 100 µM		> 100 µM		> 100 µM	> 100 µM	> 100 µM
COc1cc(C(=O)Nc2c3ccccc3nc3ccccc23)cc(OC)c1OC	> 100 µM	> 100 µM	5.58 µM	> 100 µM	> 100 µM		> 100 µM		> 100 µM	> 100 µM	> 100 µM
